Target: Pim-1 (Homo sapiens (Human), UniProt P11309)
Test: Pim kinase binding activity assay (Example 901), PIM-1 enzyme, Caliper microfluidic peptide phosphorylation
Format: biochemical
Details: 20 pM PIM-1, 10 μM ATP, 1 μM FAM-peptide, 90 minutes at room temperature
Procedure: Pim Kinase Binding Activity
A fluorescent-labeled Pim-specific peptide substrate, was custom synthesized by American Peptide Company (Sunnyvale, Calif.). Reaction Buffer contained 10 mM HEPES, pH 7.2, 10 mM MgCl2, 0.01% Tween 20, 2 mM DTT. Termination Buffer contained 190 mM HEPES, pH 7.2, 0.015% Brij-35, 0.2% Coating Reagent 3 (Caliper Life Sciences, Hopkinton, Mass.), 20 mM EDTA. Separation Buffer contained 100 mM HEPES, pH 7.2, 0.015% Brij-35, 0.1% Coating Reagent 3, 1:200 Coating Reagent 8 (Caliper Life Sciences, Hopkinton, Mass.), 10 mM EDTA and 5% DMSO.
PIM reactions were carried out in a final volume of 10 μL per well in a 384-well plate. A standard enzymatic reaction, initiated by the addition of 5 μL 2×ATP and test compound to 5 μL of 2× enzyme and FAM-peptide, contained 20 pM PIM-1, 50 pM PIM-2, or 55 pM PIM-3, 1 μM FAM-peptide, and 10 μM ATP, in Reaction Buffer. After 90 minutes of incubation at room temperature, the phosphorylation reaction was stopped by the addition of 10 μL Termination Buffer. The product and substrate in each independent reaction were separated on a 12-sipper microfluidic chip (Caliper Life Sciences, Hopkinton, Mass.) run on a Caliper LC3000® (Caliper Life Sciences, Hopkinton, Mass.). The separation of product and substrate was optimized by choosing voltages and pressure using Caliper's Optimizer software (Hopkinton, Mass.). […] The product and substrate fluorophore were excited at 488 nm and detected at 530 nm. Substrate conversion was calculated from the electropherogram using HTS Well Analyzer software (Caliper Life Sciences, Hopkinton, Mass.). Ki values for the test compound were calculated.

Chain of Pim-1 (P11309 whole entry): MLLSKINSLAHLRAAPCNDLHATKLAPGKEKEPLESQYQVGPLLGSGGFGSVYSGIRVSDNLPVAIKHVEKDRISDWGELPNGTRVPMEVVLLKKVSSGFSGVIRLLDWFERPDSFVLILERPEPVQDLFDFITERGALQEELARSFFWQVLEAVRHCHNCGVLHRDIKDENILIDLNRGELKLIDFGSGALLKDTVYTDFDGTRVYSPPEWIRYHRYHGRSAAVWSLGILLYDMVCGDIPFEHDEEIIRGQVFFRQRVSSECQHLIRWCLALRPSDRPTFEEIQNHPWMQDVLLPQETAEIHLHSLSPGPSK

SMILES	Ki
Cn1cc(-c2cc3c(-c4cccc(NCC5CCNCC5)n4)n[nH]c3cn2)cn1 [Example 183, 6-(5-(1-methyl-1H-pyrazol-4-yl)-1H-pyrazolo[3,4-c]pyridin-3-yl)-N-(piperidin-4-ylmethyl)pyridin-2-amine]	0.426 nM
Cn1cc(-c2cc3c(-c4cccc(-c5cnn(C)c5)n4)n[nH]c3cn2)cn1 [Example 184, 5-(1-methyl-1H-pyrazol-4-yl)-3-(6-(1-methyl-1H-pyrazol-4-yl)pyridin-2-yl)-1H-pyrazolo[3,4-c]pyridine]	0.502 nM
Cn1cc(-c2cc3c(-c4cccc(N5CC[C@@H](N)C5)n4)n[nH]c3cn2)cn1 [Example 189, (R)-1-(6-(5-(1-methyl-1H-pyrazol-4-yl)-1H-pyrazolo[3,4-c]pyridin-3-yl)pyridin-2-yl)pyrrolidin-3-amine]	0.136 nM
N[C@@H]1CCN(c2cncc(-c3cc4c(-c5ccccc5F)n[nH]c4cn3)c2)C1 [Example 192, (R)-1-(5-(3-(2-fluorophenyl)-1H-pyrazolo[3,4-c]pyridin-5-yl)pyridin-3-yl)pyrrolidin-3-amine]	0.511 nM
Fc1ccccc1-c1n[nH]c2cnc(-c3cnccc3OC3CCNCC3)cc12 [Example 195, 3-(2-fluorophenyl)-5-(4-(piperidin-4-yloxy)pyridin-3-yl)-1H-pyrazolo[3,4-c]pyridine]	0.567 nM
Fc1ccccc1-c1n[nH]c2cnc(-c3cnccc3OC3CNC3)cc12 [Example 198, 5-(4-(azetidin-3-yloxy)pyridin-3-yl)-3-(2-fluorophenyl)-1H-pyrazolo[3,4-c]pyridine]	3.12 nM
Cn1cc(-c2cc3c(-c4cccc(NC5CCNCC5)n4)n[nH]c3cn2)cn1 [Example 200, 6-(5-(1-methyl-1H-pyrazol-4-yl)-1H-pyrazolo[3,4-c]pyridin-3-yl)-N-(piperidin-4-yl)pyridin-2-amine]	0.092 nM
Cc1ccc(F)c(-c2n[nH]c3cnc(-c4cnn(C)c4)cc23)c1 [Example 205, 3-(2-fluoro-5-methylphenyl)-5-(1-methyl-1H-pyrazol-4-yl)-1H-pyrazolo[3,4-c]pyridine]	6.08 nM
Fc1cncc(-c2cc3c(-c4cccc(N5CCNCC5)n4)n[nH]c3cn2)c1 [Example 208, 5-(5-fluoropyridin-3-yl)-3-(6-(piperazin-1-yl)pyridin-2-yl)-1H-pyrazolo[3,4-c]pyridine]	0.284 nM
Fc1ccccc1-c1n[nH]c2cnc(-c3cnccc3OC[C@@H]3CCNC3)cc12 [Example 209, (R)-3-(2-fluorophenyl)-5-(4-(pyrrolidin-3-ylmethoxy)pyridin-3-yl)-1H-pyrazolo[3,4-c]pyridine]	0.189 nM
Fc1ccccc1-c1n[nH]c2cnc(-c3cnccc3OC[C@H]3CCNC3)cc12 [Example 211, (S)-3-(2-fluorophenyl)-5-(4-(pyrrolidin-3-ylmethoxy)pyridin-3-yl)-1H-pyrazolo[3,4-c]pyridine]	1.28 nM
c1cc(-c2n[nH]c3cnc(C4CCOC4)cc23)nc(N2CCNCC2)c1 (stereo not shown) [Example 212, 3-(6-(piperazin-1-yl)pyridin-2-yl)-5-(tetrahydrofuran-3-yl)-1H-pyrazolo[3,4-c]pyridine]	8.48 nM
Cn1cc(-c2cc3c(-c4cccc(N5C[C@@H]6C[C@H]5CN6)n4)n[nH]c3cn2)cn1 [Example 216, 3-(6-((1S,4S)-2,5-diazabicyclo[2.2.1]heptan-2-yl)pyridin-2-yl)-5-(1-methyl-1H-pyrazol-4-yl)-1H-pyrazolo[3,4-c]pyridine]	0.126 nM
Fc1ccccc1-c1n[nH]c2cnc(-c3cnccc3OCCC3CCNCC3)cc12 [Example 220, 3-(2-fluorophenyl)-5-(4-(2-(piperidin-4-yl)ethoxy)pyridin-3-yl)-1H-pyrazolo[3,4-c]pyridine]	0.379 nM
Cn1cc(-c2n[nH]c3cnc(-c4cncc(N5CCC(N)CC5)n4)cc23)cn1 [Example 221, 1-(6-(3-(1-methyl-1H-pyrazol-4-yl)-1H-pyrazolo[3,4-c]pyridin-5-yl)pyrazin-2-yl)piperidin-4-amine]	0.096 nM
Cn1cc(-c2cc3c(-c4cccc(N5CCC[C@@H](N)C5)c4)n[nH]c3cn2)cn1 [Example 222, (R)-1-(3-(5-(1-methyl-1H-pyrazol-4-yl)-1H-pyrazolo[3,4-c]pyridin-3-yl)phenyl)piperidin-3-amine]	0.387 nM
CN1CCN(c2cc3c(-c4cccc(N5CCNCC5)n4)n[nH]c3cn2)CC1=O [Example 223, 1-methyl-4-(3-(6-(piperazin-1-yl)pyridin-2-yl)-1H-pyrazolo[3,4-c]pyridin-5-yl)piperazin-2-one]	38.5 nM
Cn1cc(-c2cc3c(-c4cccc(N5CCCCC(N)C5)n4)n[nH]c3cn2)cn1 (stereo not shown) [Example 226, 1-(6-(5-(1-methyl-1H-pyrazol-4-yl)-1H-pyrazolo[3,4-c]pyridin-3-yl)pyridin-2-yl)azepan-3-amine]	0.051 nM

Other lines, results leading:

Ki	SMILES
70.9 nM	c1ccc(-c2n[nH]c3cnc(-c4ccoc4)cc23)cc1 [Example 185, 5-(furan-3-yl)-3-phenyl-1H-pyrazolo[3,4-c]pyridine]
0.717 nM	c1cncc(-c2cc3c(-c4cnn(CC5CCNCC5)c4)n[nH]c3cn2)c1 [Example 186, 3-(1-(piperidin-4-ylmethyl)-1H-pyrazol-4-yl)-5-(pyridin-3-yl)-1H-pyrazolo[3,4-c]pyridine]
0.015 nM	c1cncc(-c2cc3c(-c4cccc(N5CCCNCC5)n4)n[nH]c3cn2)c1 [Example 187, 3-(6-(1,4-diazepan-1-yl)pyridin-2-yl)-5-(pyridin-3-yl)-1H-pyrazolo[3,4-c]pyridine]
0.404 nM	N[C@@H]1CCCN(c2ccc(-c3n[nH]c4cnc(-c5cccnc5)cc34)cn2)C1 [Example 191, (R)-1-(5-(5-(pyridin-3-yl)-1H-pyrazolo[3,4-c]pyridin-3-yl)pyridin-2-yl)piperidin-3-amine]
2.63 nM	c1cncc(-c2cc3c(-c4cc[nH]n4)n[nH]c3cn2)c1 [Example 193, 3-(1H-pyrazol-3-yl)-5-(pyridin-3-yl)-1H-pyrazolo[3,4-c]pyridine]
8.77 nM	c1cncc(-c2cc3c(-c4ccncc4)n[nH]c3cn2)c1 [Example 194, 5-(pyridin-3-yl)-3-(pyridin-4-yl)-1H-pyrazolo[3,4-c]pyridine]
0.774 nM	N[C@H]1CCCN(c2ccc(-c3n[nH]c4cnc(-c5cccnc5)cc34)cn2)C1 [Example 196, (S)-1-(5-(5-(pyridin-3-yl)-1H-pyrazolo[3,4-c]pyridin-3-yl)pyridin-2-yl)piperidin-3-amine]
0.038 nM	NC1CCCN(c2cccc(-c3n[nH]c4cnc(-c5cccnc5)cc34)n2)CC1 (stereo not shown) [Example 197, 1-(6-(5-(pyridin-3-yl)-1H-pyrazolo[3,4-c]pyridin-3-yl)pyridin-2-yl)azepan-4-amine]
1 nM	N[C@H]1CCN(c2ccc(-c3n[nH]c4cnc(-c5cccnc5)cc34)cn2)C1 [Example 202, (S)-1-(5-(5-(pyridin-3-yl)-1H-pyrazolo[3,4-c]pyridin-3-yl)pyridin-2-yl)pyrrolidin-3-amine]
1.02 nM	N[C@@H]1CCN(c2ccc(-c3n[nH]c4cnc(-c5cccnc5)cc34)cn2)C1 [Example 203, (R)-1-(5-(5-(pyridin-3-yl)-1H-pyrazolo[3,4-c]pyridin-3-yl)pyridin-2-yl)pyrrolidin-3-amine]
11.6 nM	c1ccc(-c2n[nH]c3cnc(-c4cccnc4)cc23)nc1 [Example 204, 3-(pyridin-2-yl)-5-(pyridin-3-yl)-1H-pyrazolo[3,4-c]pyridine]
41.6 nM	c1ccc(-c2n[nH]c3cnc(-c4cnccn4)cc23)cc1 [Example 214, 3-phenyl-5-(pyrazin-2-yl)-1H-pyrazolo[3,4-c]pyridine]
0.313 nM	c1cncc(-c2cc3c(-c4ccn(C5CCNCC5)n4)n[nH]c3cn2)c1 [Example 215, 3-(1-(piperidin-4-yl)-1H-pyrazol-3-yl)-5-(pyridin-3-yl)-1H-pyrazolo[3,4-c]pyridine]
30.9 nM	Fc1ccccc1-c1n[nH]c2cnc(-c3cnc[nH]3)cc12 [Example 218, 3-(2-fluorophenyl)-5-(1H-imidazol-5-yl)-1H-pyrazolo[3,4-c]pyridine]
33.5 nM	Fc1ccccc1-c1n[nH]c2cnc(-c3cnccn3)cc12 [Example 219, 3-(2-fluorophenyl)-5-(pyrazin-2-yl)-1H-pyrazolo[3,4-c]pyridine]
2.83 nM	C1=C(c2n[nH]c3cnc(-c4cccnc4)cc23)CCC1 [Example 225, 3-cyclopentenyl-5-(pyridin-3-yl)-1H-pyrazolo[3,4-c]pyridine]
43 nM	c1cncc(-c2cc3c(C4CCCC4)n[nH]c3cn2)c1 [Example 228, 3-cyclopentyl-5-(pyridin-3-yl)-1H-pyrazolo[3,4-c]pyridine]
0.22 nM	NC(=O)C1(N)CCN(c2cccc(-c3n[nH]c4cnc(-c5cccnc5)cc34)n2)CC1 [Example 229, 4-amino-1-(6-(5-(pyridin-3-yl)-1H-pyrazolo[3,4-c]pyridin-3-yl)pyridin-2-yl)piperidine-4-carboxamide]
7.16 nM	Cn1ccc(-c2n[nH]c3cnc(-c4cccnc4)cc23)n1 [Example 232, 3-(1-methyl-1H-pyrazol-3-yl)-5-(pyridin-3-yl)-1H-pyrazolo[3,4-c]pyridine]

Reference: patent US9260425B2 (Genetech, Inc., priority 2011, dated 2016)
